Earlier results on two compounds are cited in patent US9849144B2 (Healios Oncology Nutrition, LLC, priority 2013, dated 2017).

For series [1] the following is noted: in vivo.
The test system of the next series is CaCo-2 cells. The settings on record: glucose containing disaccharides.

As to `NC(=O)CC[C@H](N)C(=O)O` [Glutamine, L-glutamine], the “daily dose with no safety or toxicity concerns” value in series [1] was “up to 40 grams a day”.

Regarding `OC[C@H]1O[C@H](O[C@H]2O[C@H](CO)[C@@H](O)[C@H](O)[C@H]2O)[C@H](O)[C@@H](O)[C@@H]1O` [trehalose, α-D-glucopyranosyl-1,1-α-D-glucopyranoside], the “relative humidity up to which crystalline form is stable and remains free flowing” value is on record as “up to 94 % relative humidity”. Further, the “increase of GLN uptake” value in the series on CaCo-2 cells is recorded as “a thousand fold”.
